According to patent EP2036556A1, “Piperidone derivatives and medical uses thereof” (Heinrich-Pette-Institut, priority 2007, dated 2009):
Read-outs that look alike come from different tables or passages of the source.

What was measured:
[1] = tested on: macrophage cell line J774.1; experiment: Macrophage assay (Alamar Blue cytotoxicity); assay type: cell-based
Protocol: The macrophage cell line J774.1 was maintained in complete Click RPMI medium. For the experimental procedures cells were detached from the flasks with a rubber police, washed twice with PBS and suspended at 2 x 10^6 cells mL^-1 in complete Click RPMI medium. […] Following the addition of 20 µl of Alamar Blue, the plates were further incubated at similar conditions. The plates were then read 24 and 48 h later. Control experiments to examine the effect of cell density, incubation time and DMSO concentration were performed. Absorbance in the absence of compounds was set as 100 % of growth control.

[2] = tested on: T. brucei brucei laboratory strain TC 221; experiment: Trypanosome assay (in vitro cytotoxicity, Alamar Blue); assay type: cell-based, Trypanosoma brucei brucei; settings: for activity against trypanosomes (in words): statement of the discussion
Protocol: Parasite culture: Trypomastigote forms of T. brucei brucei laboratory strain TC 221 were cultured in Baltz medium according to standard conditions.^36 In vitro cytotoxicity assays: The test compounds were dissolved in DMSO or 0.1 M NaOH. A defined number of parasites (10^4 trypanosomes per mL) were exposed in test chambers of 96-well plates to various concentrations of the test substances in a final volume of 200 µl. Positive (trypanosomes in culture medium) and negative controls (test substance without trypanosomes) were run with each plate. The plates were then incubated at 37°C in an atmosphere of 5 % CO2 for a total time period of 72 h. […] The effect of test substances was quantified in ED50 values by linear interpolation^18 of three different measurements. The activity of the test substances was measured by light absorption in an MR 700 Microplate Reader at a wavelength of 550 nm with a reference wave length of 630 nm, using the Alamar Blue®.

P. falciparum = settings: cited from earlier work
rodent malaria model = settings: cited from earlier work
[3] = Mus musculus, J774.1 macrophages, after 48h, read-out: ED50 [µM] Macrophage after 48h
[4] = Trypanosoma brucei, strain TC 221, 10^4 trypanosomes per mL, incubated 72 h, reading at 48 h, Alamar Blue, read-out: ED50 [µM] T. brucei brucei
[5] = reference substances, for comparison (title of Table 1), read-out: ED50 (T. brucei brucei)
[6] = Trypanosoma brucei, reference substances, for comparison (title of Table 1), read-out: ED50 (T. brucei brucei)
[7] = J774.1 macrophages, after 48h, read-out: ED50 [µM] Macrophage after 48h
[8] = strain TC 221, 10^4 trypanosomes per mL, incubated 72 h, reading at 48 h, Alamar Blue, read-out: ED50 [µM] T. brucei brucei

| SMILES | EC50 [1, 3] [µM] | EC50 [2, 4] [µM] | also measured |
| --- | --- | --- | --- |
| COC(=O)C1C(=O)C(C(=O)OC)[C@H](c2ccccn2)N(CCO)[C@@H]1c1ccccn1 (stereo partly drawn) [Compound 3, Dimethyl (2R,6S)-1-(2-hydroxyethyl)-4-oxo-2,6-di(pyridin-2-yl)piperidine-3,5-dicarboxylate] | 31.15 ± 0.14 | 22.8 ± 5.57 | – |
| N=C(N)c1ccc(OCCCCCOc2ccc(C(=N)N)cc2)cc1 [Pentamidine diisothionate, reference compound] | – | – | EC50 [2, 5]: 0.0027 µM |
| COC(=O)C1C(=O)C(C(=O)OC)[C@H](c2cccc([N+](=O)[O-])c2)N(Cc2ccc(C)cc2)[C@@H]1c1cccc([N+](=O)[O-])c1 (stereo partly drawn) [Compound 16, Dimethyl (2R,6S)-1-(4-methylbenzyl)-2,6-bis(3-nitrophenyl)-4-oxopiperidine 3,5-dicarboxylate] | 49.8 ± 16.8 | 2.66 ± 0.49 | – |
| C=CCN1[C@H](c2ccccn2)C(C(=O)OC)C(=O)C(C(=O)OC)[C@@H]1c1ccccn1 (stereo partly drawn) [Compound 2, Dimethyl (2R,6S)-1-allyl-4-oxo-2,6-di(pyridin-2-yl)piperidine-3,5-dicarboxylate] | > 100 | 26.5 ± 7.64 | – |
| COC(=O)C1C(=O)C(C(=O)OC)[C@H](c2cccc([N+](=O)[O-])c2)N(Cc2ccccc2)[C@@H]1c1cccc([N+](=O)[O-])c1 (stereo partly drawn) [Compound 17, Dimethyl (2R,6S)-1-benzyl-2,6-bis(3-nitrophenyl)-4-oxopiperidine-3,5-dicarboxylate] | > 100 | 2.49 ± 0.79 | – |
| CC(CN1CCC(=NOCc2c(Cl)cccc2Cl)CC1)c1ccccc1 (centres unmarked) [Compound 49, 1-(2-Phenylpropyl)-4-oxo-piperidine O-(2,6-dichloro-benzyl)-oxime] | > 100 | > 100 | activity against trypanosomes (in words) [2]: neither the oximes 48 and 52 nor the oxime ether 49 are active against trypanosomes |
| NCCCC(N)(C(=O)O)C(F)F (centres unmarked) [Eflornitine, reference compound] | – | – | EC50 [2, 5]: 22.9 µM |
| Cc1ccc(C(=O)Nc2ccc(S(=O)(=O)O)c3cc(S(=O)(=O)O)cc(S(=O)(=O)O)c23)cc1NC(=O)c1cccc(NC(=O)Nc2cccc(C(=O)Nc3cc(C(=O)Nc4ccc(S(=O)(=O)O)c5cc(S(=O)(=O)O)cc(S(=O)(=O)O)c45)ccc3C)c2)c1 [Suramine, reference compound] | – | – | EC50 [2, 6]: 0.3 µM |
| Cc1cc(C2CCCCC2)n(O)c(=O)c1 [Ciclopiroxolamine, reference compound] | – | – | EC50 ([1]; Mus musculus, J774.1, reference substance, for comparison, 48 h, read-out: ED50 (macrophages, 48 h)): 4.62 ± 0.97 µM; EC50 [2, 6]: 0.62 ± 0.22 µM; IC50 (P. falciparum; chloroquine sensitive (CQS) NF54 P. falciparum strain, read-out: IC50 in vitro proliferation): 8.2 µM; efficacy in vivo (rodent malaria model; rodent malaria model): ineffective in vivo |
| ON=C1CCN(CCCc2ccccc2)CC1 [Compound 48, 1-(3-Phenylpropyl)-4-piperidine oxime] | – | – | activity against trypanosomes (in words) [2]: neither the oximes 48 and 52 nor the oxime ether 49 are active against trypanosomes |
| C=CCN1[C@@H](c2ccc([N+](=O)[O-])cc2)C(C(=O)OC)=C(O)C(C(=O)OC)[C@@H]1c1ccc([N+](=O)[O-])cc1 (stereo partly drawn) [Compound 10, Dimethyl (2R,6S)-1-allyl-4-hydroxy-2,6-bis(4-nitrophenyl)-1,2,3,6-tetrahydropyridine-3,5-dicarboxylate] | 50.3 ± 11.7 | 2.41 ± 0.39 | – |
| COC(=O)C1C(=O)C(C(=O)OC)[C@H](c2ccccn2)N(CCOCCO)[C@@H]1c1ccccn1 (stereo partly drawn) [Compound 5, Dimethyl (2R,6S)-1-[2-(2-hydroxyethoxy)ethyl]-4-oxo-2,6-di(pyridin-2-yl)piperidine-3,5-dicarboxylate] | 38.5 ± 6.17 | 24.1 ± 4.27 | – |
| COC(=O)C1=C(O)C[C@@H](c2ccccn2)N(Cc2ccc(C)cc2)[C@H]1c1ccccn1 [Compound 20, Methyl (2'R,6'S)-4'-hydroxy-1'-(4-methylbenzyl)-1',2',5',6'-tetrahydro-2,2';6',2''-terpyridine-3'-carboxylate] | 34.9 ± 0.45 | 0.47 ± 0.17 | – |
| COC(=O)C1C(=O)C(C(=O)OC)[C@H](c2ccccn2)N(Cc2ccccc2)[C@@H]1c1ccccn1 (stereo partly drawn) [Compound 9, Dimethyl (2R,6S)-1-benzyl-4-oxo-2,6-di(pyridin-2-yl)piperidine-3,5-dicarboxylate] | 34 ± 1.56 | 11.1 ± 1.91 | – |
| C=CCN1[C@H](c2ccccc2)C(C(=O)OC)C(=O)C(C(=O)OC)[C@@H]1c1ccccc1 (stereo partly drawn) [Compound 18, Dimethyl (2R,6S)-1-allyl-4-oxo-2,6-diphenylpiperidine-3,5-dicarboxylate] | > 100 | 4.86 ± 0.63 | – |
| C[C@@H]1[C@H](O)[C@@H](C)/C=C/C=C/C=C/C=C/C=C/C=C/C=C/[C@H](O[C@@H]2O[C@H](C)[C@@H](O)[C@H](N)[C@@H]2O)C[C@@H]2O[C@](O)(C[C@@H](O)C[C@@H](O)[C@H](O)CC[C@@H](O)C[C@@H](O)CC(=O)O[C@H]1C)C[C@H](O)[C@H]2C(=O)O [Amphotericin B, reference compound] | – | – | IC50 ([1]; reference substance, for comparison, read-out: IC50 (J774.1 Macrophages)): 68.6 ± 16.5 µM |
| COC(=O)C1C(=O)C(C(=O)OC)[C@H](c2ccccn2)N(CCCC(=O)O)[C@@H]1c1ccccn1 (stereo partly drawn) [Compound 6, 4-[(2R,6S)-3,5-bis(methoxycarbonyl)-4-oxo-2,6-di(pyridin-2-yl)piperldin-1-yl]butanoic acid] | – | – | EC50 [1, 7]: 46 ± 5.92 µM; EC50 [2, 8]: 19.3 ± 2.28 µM |
| COC(=O)C1C(=O)C(C(=O)OC)[C@H](c2ccccn2)N(CC(C)O)[C@@H]1c1ccccn1 (stereo partly drawn) [Compound 4, Dimethyl (2R,6S)-1-(2-hydroxypropyl)-4-oxo-2,6-di(pyridin-2-yl)piperidine-3,5-dicarboxylate] | 32 ± 0.63 | 18.3 ± 2.59 | – |
| COC(=O)C1C(=O)C(C(=O)OC)[C@H](c2ccccn2)N[C@@H]1c1ccccn1 (stereo partly drawn) [Compound 1, Dimethyl (2R,6S)-4-oxo-2,6-di(pyridin-2-yl)piperidine-3,5-dicarboxylate] | > 100 | 28.1 ± 1.52 | – |
| COC(=O)C1C(=O)C(C(=O)OC)[C@H](c2cccc([N+](=O)[O-])c2)N(Cc2ccc(OC)cc2)[C@@H]1c1cccc([N+](=O)[O-])c1 (stereo partly drawn) [Compound 15, Dimethyl (2R,6S)-1-(4-methoxybenzyl)-2,6-bis(3-nitrophenyl)-4-oxopiperidine-3,5-dicarboxylate] | > 100 | 3.93 ± 1.1 | – |
| N[C@@H](Cn1ccc(=O)c(O)c1)C(=O)O [mimosine, L-mimosine] | – | – | IC50 (P. falciparum; chloroquine resistant (CQR) strain, read-out: IC50 antiplasmodial effect): 39 µM; IC50 (P. falciparum; chloroquine susceptible (CQS) strain, read-out: IC50 antiplasmodial effect): 32 µM; toxicity in vivo (rodent malaria model; in vivo): toxic |
| COC(=O)C1=C(O)C[C@@H](c2ccccn2)N(Cc2ccccc2)[C@H]1c1ccccn1 [Compound 19, Methyl (2'R,6'S)-1'-benzyl-4'-hydroxy-1',2',5',6'-tetrahydro-2,2';6',2''-terpyridine-3'-carboxylate] | 33.2 ± 0.69 | 1.37 ± 0.02 | – |
| COC(=O)C1=C(O)C[C@@H](c2ccccn2)N(Cc2cccc(OC)c2)[C@H]1c1ccccn1 [Compound 23, Methyl (2'R,6'S)-4'-hydroxy-1'-(3-methoxybenzyl)-1',2',5',6'-tetrahydro-2,2';6',2''-terpyridine-3'-carboxylate] | > 100 | > 100 | – |
| COC(=O)C1=C(O)C[C@@H](c2ccccn2)N(Cc2ccc(OC)cc2)[C@H]1c1ccccn1 [Compound 22, Methyl (2'R,6'S)-4'-hydroxy-1'-(4-methoxybenzyl)-1',2',5',6'-tetrahydro-2,2';6',2''-terpyridine-3'-carboxylate] | 29.9 ± 0.33 | 0.43 ± 0.17 | – |
| ON=CC1CCN(CCCc2ccccc2)CC1 [Compound 52, 1-1-(3-Phenyl-propyl)-piperidine-4-carbaldehyde oxime] | – | – | EC50 [1, 7]: > 100 µM; activity against trypanosomes (in words) [2]: neither the oximes 48 and 52 nor the oxime ether 49 are active against trypanosomes; EC50 [2, 8]: > 100 µM |
| COC(=O)C1C(=O)C(C(=O)OC)[C@H](c2cccc([N+](=O)[O-])c2)N(Cc2ccc(Cl)cc2)[C@@H]1c1cccc([N+](=O)[O-])c1 (stereo partly drawn) [Compound 14, Dimethyl (2R,6S)-1-(4-chlorobenzyl)-2,6-bis(3-nitrophenyl)-4-oxopiperidine-3,5-dicarboxylate] | 46.6 ± 9.86 | 10.6 ± 2.83 | – |
| COC(=O)C1C(=O)C(C(=O)OC)[C@H](c2ccccn2)N(Cc2ccccn2)[C@@H]1c1ccccn1 (stereo partly drawn) [Compound 8, Dimethyl (2R,6S)-4-oxo-2,6-di(pyridine-2-yl)-1-(pyridine-2-yl-methyl)-piperidine-3,5-diearboxylate] | – | – | EC50 [1, 7]: 29.9 ± 2.32 µM; EC50 [2, 8]: 4.62 ± 1.39 µM |
| COC(=O)C1C(=O)C(C(=O)OC)[C@H](c2ccccn2)N(CCCCCCCC(=O)O)[C@@H]1c1ccccn1 (stereo partly drawn) [Compound 7, 8-[(2R,6S)-3,5-bis(methoxycarbonyl)-4-oxo-2,6-di(pyridin-2-yl)piperidin-1-yl]octanoic acid] | 33.8 ± 2.81 | 24 ± 4.48 | – |
